Test results as given in patent publication US9708336B2, “Metallo-beta-lactamase inhibitors” (priority 2014, dated 2017).
pIC50: −log10 of the molar value. Read-outs that look alike come from different tables or passages of the source.

Columns and labels:
NDM-1 = NDM-1 (Klebsiella pneumoniae, UniProt C7C422); assay: biochemical; assay type: biochemical; settings: read-out: NDM-1 IC50
IMP-1 = IMP-1 (Serratia marcescens, UniProt P52699); assay: biochemical; assay type: biochemical; settings: read-out: IMP-1 IC50
VIM-1 = VIM-1 (Pseudomonas aeruginosa (strain ATCC 15692 / DSM 22644 / CIP 104116 / JCM 14847 / LMG 12228 / 1C / PRS 101 / PAO1), UniProt A0A0F7KYQ8); assay: Enzyme activity: determination of IC50, fluorescence assay with CCF2-FA substrate (VIM-1); assay type: biochemical; settings: read-out: VIM-1 IC50
[1] = tested on: Escherichia coli expressing NDM-1 (CLB30016); assay: Antibiotic potentiation activity: synergistic concentration (MITC95) with imipenem, OD600 growth; assay type: cell-based; settings: for Escherichia coli expressing NDM-1 (CLB 30016) MITC95: concentration giving 95% inhibition of bacterial growth
Procedure, shortened: (§1)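 CLB30005 was precultured on Mueller Hinton agar with 8 ug/ml imipenem, the other strains on trypticase soy agar with 5% sheep blood, overnight at 35 °C. Saline suspensions diluted 1:100 in 1.1× CAMHB received compound and 4 μg/ml imipenem, then 22–24 h at 35 °C before absorbance reading.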

[2] = tested on: Klebsiella pneumoniae expressing VIM-1 (IHMA599644); assay: as above; assay type: cell-based; settings: for Klebsiella pneumoniae expressing VIM-1 (IHMA 599644) MITC95: concentration giving 95% inhibition of bacterial growth
Procedure, shortened: as §1

[3] = tested on: Serratia marcescens expressing IMP-1 (CL5741); assay: as above; assay type: cell-based; settings: for Serratia marcescens expressing IMP-1 (CL5741) MITC95: concentration giving 95% inhibition of bacterial growth
Procedure, shortened: as §1

[4] = NDM-1 enzyme, CCF2-FA substrate
[5] = IMP-1 enzyme, CCF2-FA substrate
[6] = VIM-1 enzyme, CCF2-FA substrate
[7] = (CLB30016, NDM-1), 95% growth inhibition
[8] = Klebsiella pneumoniae IHMA599644 (VIM-1), 95% growth inhibition
[9] = Serratia marcescens CL5741 (IMP-1), 95% growth inhibition
[10] = NDM-1 enzyme, CCF2-FA fluorescence assay
[11] = IMP-1 enzyme, CCF2-FA fluorescence assay
[12] = VIM-1 enzyme, CCF2-FA fluorescence assay
[13] = Escherichia coli expressing NDM-1 (CLB30016), 95% growth inhibition
[14] = Klebsiella pneumoniae expressing VIM-1 (IHMA599644), 95% growth inhibition
[15] = Serratia marcescens expressing IMP-1 (CL5741), 95% growth inhibition
[16] = fluorescence assay with CCF2-FA substrate
[17] = CLB30016 (NDM-1), 95% inhibition of bacterial growth
[18] = IHMA599644 (VIM-1), 95% inhibition of bacterial growth
[19] = CL5741 (IMP-1), 95% inhibition of bacterial growth

Sequence of IMP-1 (P52699 whole entry, looked up): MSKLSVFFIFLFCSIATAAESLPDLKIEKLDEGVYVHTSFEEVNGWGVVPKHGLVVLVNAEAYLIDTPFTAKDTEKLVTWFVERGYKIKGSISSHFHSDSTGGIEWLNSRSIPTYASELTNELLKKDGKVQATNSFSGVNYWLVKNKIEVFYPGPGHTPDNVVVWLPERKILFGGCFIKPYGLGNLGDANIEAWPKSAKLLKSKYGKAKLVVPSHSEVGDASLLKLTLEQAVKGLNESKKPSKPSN
Sequence of NDM-1 (C7C422 whole entry, looked up, species assumed): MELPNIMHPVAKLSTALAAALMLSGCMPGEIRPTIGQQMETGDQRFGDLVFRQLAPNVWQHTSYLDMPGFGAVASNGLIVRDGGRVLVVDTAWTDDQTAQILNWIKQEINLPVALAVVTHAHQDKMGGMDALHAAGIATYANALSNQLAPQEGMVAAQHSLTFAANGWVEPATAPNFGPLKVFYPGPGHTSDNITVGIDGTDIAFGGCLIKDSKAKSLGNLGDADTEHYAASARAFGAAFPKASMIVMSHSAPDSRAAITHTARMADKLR

SMILES	pIC50 (NDM-1; [4])	pIC50 (IMP-1; [5])	pIC50 (VIM-1; [6])	Escherichia coli MITC95 [1, 7] [µM]	Klebsiella pneumoniae MITC95 [2, 8] [µM]	Serratia marcescens MITC95 [3, 9] [µM]	also measured
NS(=O)(=O)c1c(C[C@H]2CC[C@@H](N)CC2)ccc(-c2ccc(C3CCNC3)cc2)c1-c1nnn[nH]1 (stereo partly drawn) [Example 583, 4-(((1s,4s)-4-aminocyclohexyl)methyl)-4′-(pyrrolidin-3-yl)-2-(1H-tetrazol-5-yl)-[1,1′-biphenyl]-3-sulfonamide]	8.19	7.92	7.63	3.125	6.25	6.25	–
NS(=O)(=O)c1cccc(-c2cccc3sc(Br)nc23)c1-c1nnn[nH]1 [Example 421, 3-(2-Bromobenzo[d]thiazol-4-yl)-2-(1H-tetrazol-5-yl)benzenesulfonamide]	–	–	–	–	–	–	pIC50 (NDM-1; [10]): 9.54; pIC50 (IMP-1; [11]): 7.72; pIC50 (VIM-1; [12]): 8.64; Escherichia coli MITC95 [1, 13]: 3.125 µM; Klebsiella pneumoniae MITC95 [2, 14]: >200 µM; Serratia marcescens MITC95 [3, 15]: 25 µM
NS(=O)(=O)c1c(CC2CCNCC2)ccc(-c2ccc(C3CNC3)cc2)c1-c1nnn[nH]1 [Example 597, 3-[4-(azetidin-3-yl)phenyl]-6-(4-piperidylmethyl)-2-(1H-tetrazol-5-yl)benzenesulfonamide]	8.05	7.34	8.91	1.563	1.563	3.125	–
Nc1nc2c(-c3ccc(CC4CCC4)c(S(N)(=O)=O)c3-c3nn[nH]n3)cccc2s1 [Example 535, 3-(2-Aminobenzo[d]thiazol-4-yl)-6-(cyclobutylmethyl)-2-(2H-tetrazol-5-yl)benzenesulfonamide]	9.07	8.16	8.57	6.25	50	25	–
Cc1ccc(Oc2cccc(S(N)(=O)=O)c2-c2nn[nH]n2)cc1 [Example 179, 2-(2H-tetrazol-5-yl)-3-(p-tolyloxy)benzenesulfonamide]	–	–	–	–	–	–	pIC50 (NDM-1; [16]): 7.97; pIC50 (IMP-1; [16]): 6.39; pIC50 (VIM-1; [16]): 5.84; Escherichia coli expressing NDM-1 (CLB 30016) MITC95 [1]: 3.125 µM; Klebsiella pneumoniae expressing VIM-1 (IHMA 599644) MITC95 [2]: >200 µM; Serratia marcescens expressing IMP-1 (CL5741) MITC95 [3]: 37.5 µM
Cc1nnc2ccc(-c3cccc(S(N)(=O)=O)c3-c3nnn[nH]3)cn12 [Example 113, 3-(3-methyl-[1,2,4]triazolo[4,3-a]pyridin-6-yl)-2-(1H-tetrazol-5-yl)benzenesulfonamide]	–	–	–	–	–	–	pIC50 (NDM-1; [16]): 7.81; pIC50 (IMP-1; [16]): 4.83; pIC50 (VIM-1; [16]): 6.50; Escherichia coli expressing NDM-1 (CLB 30016) MITC95 [1]: 3.125 µM; Klebsiella pneumoniae expressing VIM-1 (IHMA 599644) MITC95 [2]: 50 µM; Serratia marcescens expressing IMP-1 (CL5741) MITC95 [3]: 200 µM
NS(=O)(=O)c1c(C(F)(F)F)ccc(-c2cccc3c2OCCN3)c1-c1nnn[nH]1 [Example 724, 3-(3,4-dihydro-2H-1,4-benzoxazin-8-yl)-2-(1H-tetrazol-5-yl)-6-(trifluoromethyl)benzenesulfon-amide]	8.94	8.61	9.06	6.25	12.5	6.25	–
CC(C)(C)C(=O)NCC1CCN(c2ccc(C(F)(F)F)c(S(N)(=O)=O)c2-c2nnn[nH]2)CC1 [Example 760, 2,2-dimethyl-N-({1-[3-sulfamoyl-2-(1H-tetrazol-5-yl)-4-(trifluoromethyl)phenyl]piperidin-4-yl}methyl) propanamide]	–	–	–	–	–	–	pIC50 (NDM-1; [16]): 8.25; pIC50 (IMP-1; [16]): 8.68; pIC50 (VIM-1; [16]): 8.82; Escherichia coli MITC95 [1, 17]: 100 µM; Klebsiella pneumoniae MITC95 [2, 18]: 100 µM; Serratia marcescens MITC95 [3, 19]: 25 µM
Nc1nc2cc(F)cc(-c3ccc(C(F)(F)F)c(S(N)(=O)=O)c3-c3nnn[nH]3)c2[nH]1 [Example 566, 3-(2-amino-5-fluoro-1H-benzo[d]imidazol-7-yl)-2-(1H-tetrazol-5-yl)-6-(trifluoromethyl)benzenesulfonamide]	9.63	8.57	9.29	0.7813	3.125	3.125	–
NS(=O)(=O)c1c(C(F)(F)F)ccc(N2CC3C(CO)C3C2)c1-c1nnn[nH]1 (stereo not drawn) [Example 658, 3-[6-(hydroxymethyl)-3-azabicyclo[3.1.0]hex-3-yl]-2-(1H-tetrazol-5-yl)-6-(trifluoromethyl)benzenesulfonamide]	8.29	8.16	8.28	2.344	12.5	0.7813	–
NS(=O)(=O)c1c(CC2CCNC2)ccc(-c2ccc(C3CCNCC3)cc2)c1-c1nn[nH]n1 (stereo not drawn) [Example 468, 4′-(piperidin-4-yl)-4-(pyrrolidin-3-ylmethyl)-2-(2H-tetrazol-5-yl)-[1,1′-biphenyl]-3-sulfonamide]	–	–	–	–	–	–	pIC50 (NDM-1; [10]): 8.00; pIC50 (IMP-1; [11]): 7.87; pIC50 (VIM-1; [12]): 8.42; Escherichia coli MITC95 [1, 13]: 0.7813 µM; Klebsiella pneumoniae MITC95 [2, 14]: 1.563 µM; Serratia marcescens MITC95 [3, 15]: 1.563 µM
Nc1nc(-c2ccc(-c3ccc(C(F)(F)F)c(S(N)(=O)=O)c3-c3nnn[nH]3)cc2)cs1 [Example 732, 4′-(2-amino-1,3-thiaozl-4-yl)-2-(1H-tetrazol-5-yl)-4-(trifluoromethyl)biphenyl-3-sulfonamide]	9.27	9.42	9.16	0.7813	25	3.125	–
NS(=O)(=O)c1c(C(F)(F)F)ccc(-c2ccc(-c3c[nH]c(O)n3)cc2)c1-c1nnn[nH]1.O=C(O)C(F)(F)F [Example 559, 3-[4-(2-hydroxy-1H-imidazol-4-yl)phenyl]-2-(1H-tetrazol-5-yl)-6-(trifluoromethyl)benzenesulfonamide]	9.36	9.27	9.67	12.5	12.5	6.25	–
N=C(NCCCN)c1ccc(-c2ccc(C(F)(F)F)c(S(N)(=O)=O)c2-c2nn[nH]n2)cc1 [Example 565, N-(3-aminopropyl)-3′-sulfamoyl-2′-(2H-tetrazol-5-yl)-4′-(trifluoromethyl)biphenyl-4-carboximidamide]	6.73	6.70	7.95	12.5	12.5	25	–
NS(=O)(=O)c1c(C(F)(F)F)ccc(-c2ccc(C3CCN(C4CCNC4)CC3)cc2)c1-c1nnn[nH]1 (stereo not drawn) [Example 789, 4′-(1-pyrrolidin-3-ylpiperidin-4-yl)-2-(1H-tetrazol-5-yl)-4-(trifluoromethyl)biphenyl-3-sulfonamide]	–	–	–	–	–	–	pIC50 (NDM-1; [16]): 8.62; pIC50 (IMP-1; [16]): 9.33; pIC50 (VIM-1; [16]): 7.78; Escherichia coli MITC95 [1, 17]: 3.125 µM; Klebsiella pneumoniae MITC95 [2, 18]: 100 µM; Serratia marcescens MITC95 [3, 19]: 3.125 µM
Nc1ccc(-c2ccc(C[C@H]3CC[C@@H](N)CC3)c(S(N)(=O)=O)c2-c2nnn[nH]2)cn1 [Example 574, 6-(((1s,4s)-4-aminocyclohexyl)methyl)-3-(6-aminopyridin-3-yl)-2-(2H-tetrazol-5-yl)benzenesulfonamide]	8.83	7.45	8.10	0.3906	3.125	3.125	–
NS(=O)(=O)c1cccc(-c2snc3ncccc23)c1-c1nnn[nH]1 [Example 413, 3-isothiazolo[3,4-b]pyridin-3-yl-2-(1H-tetrazol-5-yl)benzenesulfonamide]	–	–	–	–	–	–	pIC50 (NDM-1; [10]): 8.67; pIC50 (IMP-1; [11]): 6.47; pIC50 (VIM-1; [12]): 8.68; Escherichia coli MITC95 [1, 13]: 0.5859 µM; Klebsiella pneumoniae MITC95 [2, 14]: 4.688 µM; Serratia marcescens MITC95 [3, 15]: 9.375 µM
NS(=O)(=O)c1c(CC2(F)CCNC2)ccc(-c2ccc(C3CCNCC3)cc2)c1-c1nn[nH]n1 (stereo not drawn) [Example 467, 4-((3-fluoropyrrolidin-3-yl)methyl)-4′-(piperidin-4-yl)-2-(2H-tetrazol-5-yl)-[1,1′-biphenyl]-3-sulfonamide]	–	–	–	–	–	–	pIC50 (NDM-1; [10]): 7.99; pIC50 (IMP-1; [11]): 7.46; pIC50 (VIM-1; [12]): 8.32; Escherichia coli MITC95 [1, 13]: 0.7813 µM; Klebsiella pneumoniae MITC95 [2, 14]: 1.563 µM; Serratia marcescens MITC95 [3, 15]: 1.563 µM
CS(=O)(=O)C1CN(c2ccc(-c3cccc(S(N)(=O)=O)c3-c3nnn[nH]3)cn2)C1 [Example 631, 3-[6-(3-methylsulfonylazetidin-1-yl)-3-pyridyl]-2-(1H-tetrazol-5-yl)benzenesulfonamide]	8.08	7.40	6.96	1.953	25	6.25	–
